pIC50: −log10 of the molar value. Calls of active or inactive are those of the source. The rule behind the calls is not given here.
How the values were obtained:
NCI-H446 [1] = assay: Induction of apoptosis in human NCI-H446 cells assessed as late apoptotic cells at 1 nM incubated for 24 hrs by AnnexinV-FITC/PI staining based flow cytometry analysis (reference value: 0.37 %); assay type: functional
NCI-H446 [2] = assay: Induction of apoptosis in human NCI-H446 cells assessed as early apoptotic cells at 1 nM incubated for 24 hrs by AnnexinV-FITC/PI staining based flow cytometry analysis (reference value: 3.1 %); assay type: functional
NCI-H446 [3] = assay: Induction of apoptosis in human NCI-H446 cells assessed as early apoptotic cells at 10 nM incubated for 24 hrs by AnnexinV-FITC/PI staining based flow cytometry analysis (reference value: 3.1 %); assay type: functional
NCI-H69 [4] = assay: Induction of apoptosis in human NCI-H69 cells assessed as increase in cleaved-PARP protein expression at 0.1 to 100 nM measured after 24 hrs by Western blot analysis; assay type: functional, cell-based; details: dose 0.1-100 nM
H69AR [5] = assay: Induction of apoptosis in human NCI-H69AR cells assessed as late apoptotic cells at 1 nM incubated for 24 hrs by AnnexinV-FITC/PI staining based flow cytometry analysis (reference value: 2.99 %); assay type: functional
NCI-H69 [6] = assay: Induction of apoptosis in human NCI-H69 cells assessed as inhibition of Mcl-1 protein expression at 0.1 to 100 nM incubated for 24 hrs by Western blot analysis; assay type: functional, cell-based; details: dose 0.1-100 nM
NCI-H69 [7] = assay: Induction of apoptosis in human NCI-H69 cells assessed as inhibition of Bcl-2 protein expression at 0.1 to 100 nM incubated for 24 hrs by Western blot analysis; assay type: functional, cell-based; details: dose 0.1-100 nM
NCI-H446 [8] = assay: Induction of apoptosis in human NCI-H446 cells assessed as inhibition of Bcl-2 protein expression incubated for 24 hrs by Western blot analysis; assay type: functional, cell-based; details: dose 0.1-100 nM
H69AR [9] = assay: Induction of apoptosis in human NCI-H69AR cells assessed as increase in cleaved-caspase 3 protein expression at 0.1 to 100 nM measured after 24 hrs by Western blot analysis; assay type: functional, cell-based; details: dose 0.1-100 nM
Mus musculus [10] = assay: Downregulation of Bcl-2 protein expression in tumor of BALB/c mouse xenografted with human NCI-H446 cells at 0.75 mg/kg, IG administered intragastrically once a week for 28 days by western blot analysis; assay type: functional, organism-based; details: time 28.0 day
H69AR [11] = assay: Induction of apoptosis in human NCI-H69AR cells assessed as late apoptotic cells at 100 nM incubated for 24 hrs by AnnexinV-FITC/PI staining based flow cytometry analysis (reference value: 2.99 %); assay type: functional
NCI-H446 [12] = assay: Antiproliferative activity against etoposide/cisplatin combination-resistant human NCI-H446 cells assessed as inhibition of cell growth incubated for 72 hrs by SRB assay; assay type: functional, cell-based; details: NCI-H446, 72 h
NCI-H446 [13] = assay: Induction of apoptosis in human NCI-H446 cells assessed as downregulation of survivin protein expression at 0.1 to 100 nM measured for 48 hrs by Western blot analysis; assay type: functional, cell-based; details: dose 0.1-100 nM
NCI-H446 [14] = assay: Induction of apoptosis in human NCI-H446 cells assessed as inhibition of Bcl-1 protein expression at 0.1 to 100 nM incubated for 24 hrs by Western blot analysis; assay type: functional, cell-based; details: dose 0.1-100 nM
[15] = Resistance index, ratio of IC50 for antiproliferative activity against etoposide/cisplatin combination-resistant human NCI-H446 cells to IC50 for antiproliferative activity against human NCI-H446 cells; assay type: functional
[16] = Toxicity in BALB/c nude mouse xenografted with Irinotecan-resistant human NCI-H446 cells assessed as reduction in body weight at 3 mg/kg, IG administered once a week and measured 3 times a week for 35 days; assay type: organism-based; details: in vivo, po, 840 h, time 35 day
NCI-H446 [17] = assay: Induction of apoptosis in human NCI-H446 cells assessed as increase in cleaved-caspase 3 protein expression at 0.1 to 100 nM measured after 24 to 48 hrs by Western blot analysis; assay type: functional, cell-based; details: dose 0.1-100 nM, time 24-48 hrs
HepG2 = assay: Antiproliferative activity against human HepG2 cells assessed as inhibition of cell growth incubated for 72 hrs by SRB assay; assay type: functional, cell-based; details: HepG2, 72 h
H69AR [18] = assay: Induction of apoptosis in human NCI-H69AR cells assessed as reduction in XIAP mRNA expression at 0.1 to 100 nM incubated for 24 hrs by RT-PCR analysis; assay type: functional, cell-based; details: dose 0.1-100 nM
NCI-H446 [19] = assay: Antitumor activity against Irinotecan-resistant human NCI-H446 cells xenografted in BALB/c nude mouse assessed as tumor weight at 3 mg/kg, IG administered once a week and measured 3 times a week for 35 days relative to control; assay type: functional; details: NCI-H446, po, 840 h, time 35 day, read-out: TGI
NCI-H446 [20] = assay: Induction of apoptosis in human NCI-H446 cells assessed as increase in cleaved-PARP protein expression at 0.1 to 100 nM measured after 24 to 48 hrs by Western blot analysis; assay type: functional, cell-based; details: dose 0.1-100 nM, time 24-48 hrs
NCI-H446 [21] = assay: Induction of apoptosis in human NCI-H446 cells assessed as early apoptotic cells at 0.1 nM incubated for 24 hrs by AnnexinV-FITC/PI staining based flow cytometry analysis (reference value: 3.1 %); assay type: functional
NCI-H69 [22] = assay: Induction of apoptosis in human NCI-H69 cells assessed as reduction in survivin mRNA expression at 0.1 to 100 nM incubated for 24 hrs by RT-PCR analysis; assay type: functional, cell-based; details: dose 0.1-100 nM
Bel-7402 = assay: Antiproliferative activity against human Bel-7402 cells assessed as inhibition of cell growth incubated for 72 hrs by SRB assay; assay type: functional, cell-based; details: Bel-7402, 72 h
H69AR [23] = assay: Induction of apoptosis in human NCI-H69AR cells assessed as dead cells at 100 nM incubated for 24 hrs by AnnexinV-FITC/PI staining based flow cytometry analysis (reference value: 1.92 %); assay type: functional
NCI-H69 [24] = assay: Induction of apoptosis in human NCI-H69 cells assessed as reduction in Mcl-1 mRNA expression at 0.1 to 100 nM incubated for 24 hrs by RT-PCR analysis; assay type: functional, cell-based; details: dose 0.1-100 nM
NCI-H446 [25] = assay: Induction of apoptosis in human NCI-H446 cells assessed as reduction in Mcl-1 mRNA level at 0.1 to 100 nM incubated for 24 hrs by RT-PCR analysis; assay type: functional, cell-based; details: dose 0.1-100 nM
H69AR [26] = assay: Induction of apoptosis in human NCI-H69AR cells assessed as inhibition of survivin protein expression at 0.1 to 100 nM incubated for 24 hrs by Western blot analysis; assay type: functional, cell-based; details: dose 0.1-100 nM
[27] = Resistance index, ratio of IC50 for antiproliferative activity against Irinotecan-resistant human NCI-H446 cells to IC50 for antiproliferative activity against human NCI-H446 cells; assay type: functional
NCI-H446 [28] = assay: Induction of apoptosis in human NCI-H446 cells assessed as reduction in XIAP mRNA level at 0.1 to 100 nM incubated for 24 hrs by RT-PCR analysis; assay type: functional, cell-based; details: dose 0.1-100 nM
H69AR [29] = assay: Induction of apoptosis in human NCI-H69AR cells assessed as increase in cleaved-caspase 9 protein expression at 0.1 to 100 nM measured after 24 hrs by Western blot analysis; assay type: functional, cell-based; details: dose 0.1-100 nM
NCI-H446 [30] = assay: Induction of apoptosis in human NCI-H446 cells assessed as inhibition of XIAP protein expression incubated for 24 hrs by Western blot analysis; assay type: functional, cell-based; details: dose 0.1-100 nM
Mus musculus [31] = assay: Downregulation of Mcl-1 protein expression in tumor of BALB/c mouse xenografted with human NCI-H446 cells at 0.75 mg/kg, IG administered intragastrically once a week for 28 days by western blot analysis; assay type: functional, organism-based; details: time 28.0 day

CC[C@@]1(O)C(=O)OCc2c1cc1n(c2=O)Cc2c-1nc1cc3c(cc1c2-c1ccoc1)OCO3
Activity (NCI-H446 [1]): 9.6% | Activity (NCI-H446 [2]): 13.08% | Activity (NCI-H446 [3]): 15.81% | Activity (NCI-H69 [4]): Active | Activity (H69AR [5]): 7.02% | inhibition (NCI-H69 [6]): Active | inhibition (NCI-H69 [7]): Active | inhibition (NCI-H446 [8]): Active | Activity (H69AR [9]): Active | Activity (Mus musculus [10]): Active | Activity (H69AR [11]): 32.38% | pIC50 (NCI-H446 [12]): 9.31 | Activity (NCI-H446 [13]): Active | inhibition (NCI-H446 [14]): Active | Ratio IC50 [15]: 0.63 | Activity [16]: Non-Toxic | Activity (NCI-H446 [17]): Active | pIC50 (HepG2): 8.85 | Activity (H69AR [18]): Active | inhibition in vivo at 3 mg/kg (NCI-H446 [19]): 93.4% | Activity (NCI-H446 [20]): Active | Activity (NCI-H446 [21]): 7% | Activity (NCI-H69 [22]): Active | pIC50 (Bel-7402): 8.42 | Activity (H69AR [23]): 1.47% | Activity (NCI-H69 [24]): Active | Activity (NCI-H446 [25]): Active | inhibition (H69AR [26]): Active | Ratio IC50 [27]: 0.64 | Activity (NCI-H446 [28]): Active | Activity (H69AR [29]): Active | inhibition (NCI-H446 [30]): Active | Activity (Mus musculus [31]): Active

— ChEMBL document CHEMBL5108002, “Design, synthesis, and biological evaluation of novel 7-substituted 10,11-methylenedioxy-camptothecin derivatives against drug-resistant small-cell lung cancer in vitro and in vivo” (Eur J Med Chem, 2022)
